Where two headings read alike, the source gives them in different places.
Assays:
Format in all cases: in vivo
[1] = test system: ducksalad (Heteranthera limosa); experiment: Test B flooded paddy test; details: Heteranthera limosa, Flood, 250 g ai/ha; scale of 0 to 100 where 0 is no effect and 100 is complete control; read-out: Ducksalad plant response rating
How it was run: (§1)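 Plants at 2-leaf stage flooded to 3 cm above soil, with compounds applied directly to paddy water and that depth maintained. Plants kept in greenhouse 13–15 d. Visual rating versus controls on a 0 (no effect) to 100 (complete control) scale.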

[2] = test system: barnyardgrass (Echinochloa crus-galli); experiment: Test B flooded paddy test; details: Echinochloa crus-galli, Flood, 250 g ai/ha; scale of 0 to 100 where 0 is no effect and 100 is complete control; read-out: Barnyardgrass plant response rating
How it was run: as §1

[3] = test system: sedge, umbrella (small-flower umbrella sedge, Cyperus difformis); experiment: Test B flooded paddy test; details: Cyperus difformis, Flood, 250 g ai/ha; scale of 0 to 100 where 0 is no effect and 100 is complete control; read-out: Sedge, Umbrella plant response rating
How it was run: as §1

rice (Oryra sativa) = experiment: Test B flooded paddy test; details: Oryza sativa, Flood, 250 g ai/ha; scale of 0 to 100 where 0 is no effect and 100 is complete control; read-out: Rice plant response rating
How it was run: as §1

[4] = test system: ryegrass, Italian (Italian ryegrass, Lolium multiflorum); experiment: Test A postemergence; details: Lolium multiflorum, post-emergence, 240 h, 125 g ai/ha
How it was run: (§2)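 Seeded soil received test chemicals as a preemergence directed spray, and seedlings at one to two leaves, 2–10 cm tall, received them postemergence, in a non-phytotoxic, surfactant-containing solvent mixture. Pots were held in a greenhouse for approximately 10 d, then rated for injury from 0, no effect, to 100, complete control.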

[5] = test system: pigweed (Amaranthus retroflexus); experiment: Test A postemergence; details: Amaranthus retroflexus, post-emergence, 240 h, 125 g ai/ha
How it was run: as §2

[6] = test system: blackgrass (Alopecurus myosuroides); experiment: Test A postemergence; details: Alopecurus myosuroides, post-emergence, 240 h, 125 g ai/ha
How it was run: as §2

[7] = test system: wheat (Triticum aestivum); experiment: Test A postemergence; details: Triticum aestivum, post-emergence, 240 h, 125 g ai/ha
How it was run: as §2

[8] = test system: giant foxtail (Setaria faberii); experiment: Test A postemergence; details: Setaria faberi, post-emergence, 240 h, 125 g ai/ha
How it was run: as §2

[9] = test system: ragweed (common ragweed, Ambrosia elatior); experiment: Test A postemergence; details: Ambrosia artemisiifolia, post-emergence, 240 h, 125 g ai/ha
How it was run: as §2

corn (Zea mays) = experiment: Test A postemergence; details: Zea mays, post-emergence, 240 h, 125 g ai/ha
How it was run: as §2

[10] = test system: barnyardgrass (Echinochloa crus-galli); experiment: Test A postemergence; details: Echinochloa crus-galli, post-emergence, 240 h, 125 g ai/ha
How it was run: as §2

Kochia (Kochia scoparia) = experiment: Test A postemergence; details: Bassia scoparia, post-emergence, 240 h, 125 g ai/ha
How it was run: as §2

[11] = test system: Galium (catchweed bedstraw, Galium aparine); experiment: Test A postemergence; details: Galium, post-emergence, 240 h, 125 g ai/ha
How it was run: as §2

[12] = test system: barnyardgrass (Echinochloa crus-galli); experiment: Test A preemergence; details: Echinochloa crus-galli, pre-emergence, 240 h; for pest or weed control at 125 g/ha: 125 g ai/ha, 0 to 100 scale where 0 is no effect and 100 is complete control; for pest or weed control at 500 g/ha: 500 g ai/ha
How it was run: as §2

[13] = preemergence, read-out: Barnyardgrass plant response rating

## Cc1cc([C@H]2CN(C)C(=O)[C@@H]2C(=O)Nc2ccccc2F)ccc1Cl [Compound 928]
[1]
  pest or weed control at 250 g/ha: 80%
[2]
  pest or weed control at 250 g/ha: 55%
[3]
  pest or weed control at 250 g/ha: 0%
Rice (Oryra sativa)
  pest or weed control at 250 g/ha: 0%
[4]; Postemergence, visual injury after approximately 10 d, 0 to 100 scale where 0 is no effect and 100 is complete control, read-out: Plant response rating, Ryegrass, Italian
  pest or weed control at 125 g/ha: 50%
[5]; Postemergence, visual injury after approximately 10 d, 0 to 100 scale where 0 is no effect and 100 is complete control, read-out: Plant response rating, Pigweed
  pest or weed control at 125 g/ha: 20%
[6]; Postemergence, visual injury after approximately 10 d, 0 to 100 scale where 0 is no effect and 100 is complete control, read-out: Plant response rating, Blackgrass
  pest or weed control at 125 g/ha: 30%
[7]; Postemergence, visual injury after approximately 10 d, 0 to 100 scale where 0 is no effect and 100 is complete control, read-out: Plant response rating, Wheat
  plant injury at 125 g/ha: 40%
[8]; Postemergence, visual injury after approximately 10 d, 0 to 100 scale where 0 is no effect and 100 is complete control, read-out: Plant response rating, Foxtail, Giant
  pest or weed control at 125 g/ha: 90%
[9]; Postemergence, visual injury after approximately 10 d, 0 to 100 scale where 0 is no effect and 100 is complete control, read-out: Plant response rating, Ragweed
  pest or weed control at 125 g/ha: 0%
Corn (Zea mays); Postemergence, visual injury after approximately 10 d, 0 to 100 scale where 0 is no effect and 100 is complete control
  Corn plant response rating (crop injury, 0 = no effect, 100 = complete kill) at 125 g/ha: 40%
[10]; Postemergence, visual injury after approximately 10 d, 0 to 100 scale where 0 is no effect and 100 is complete control, read-out: Plant response rating, Barnyardgrass
  pest or weed control at 125 g/ha: 90%
Kochia (Kochia scoparia); Postemergence, visual injury after approximately 10 d, 0 to 100 scale where 0 is no effect and 100 is complete control, read-out: Plant response rating, Kochia
  pest or weed control at 125 g/ha: 40%
[11]; Postemergence, visual injury after approximately 10 d, 0 to 100 scale where 0 is no effect and 100 is complete control, read-out: Plant response rating, Galium
  pest or weed control at 125 g/ha: 50%
[12]; [13]
  pest or weed control at 125 g/ha: 90%
[12]; preemergence, visual injury rating about 10 d after treatment, 0 to 100 scale (0 no effect, 100 complete control), read-out: Barnyardgrass plant response rating
  pest or weed control at 500 g/ha: 90%

## COc1cc([C@H]2CN(C)C(=O)[C@@H]2C(=O)Nc2cccc(F)c2F)cc(C(F)(F)F)c1 [Compound 856]
[1]
  pest or weed control at 250 g/ha: 75%
[2]
  pest or weed control at 250 g/ha: 50%
[3]
  pest or weed control at 250 g/ha: 0%
Rice (Oryra sativa)
  pest or weed control at 250 g/ha: 0%
[4]; postemergence, visual injury rating after approximately 10 d, read-out: Ryegrass, Italian plant response rating (0 to 100 scale, 0 no effect, 100 complete control)
  pest or weed control at 125 g/ha: 40%
[5]; postemergence, visual injury rating after approximately 10 d, read-out: Pigweed plant response rating (0 to 100 scale, 0 no effect, 100 complete control)
  pest or weed control at 125 g/ha: 20%
[6]; postemergence, visual injury rating after approximately 10 d, read-out: Blackgrass plant response rating (0 to 100 scale, 0 no effect, 100 complete control)
  pest or weed control at 125 g/ha: 60%
[7]; postemergence, visual injury rating after approximately 10 d, read-out: Wheat plant response rating (0 to 100 scale, 0 no effect, 100 complete control)
  plant injury at 125 g/ha: 50%
[8]; postemergence, visual injury rating after approximately 10 d, read-out: Foxtail, Giant plant response rating (0 to 100 scale, 0 no effect, 100 complete control)
  pest or weed control at 125 g/ha: 90%
[9]; postemergence, visual injury rating after approximately 10 d, read-out: Ragweed plant response rating (0 to 100 scale, 0 no effect, 100 complete control)
  pest or weed control at 125 g/ha: 0%
Corn (Zea mays); postemergence, visual injury rating after approximately 10 d, read-out: Corn plant response rating (0 to 100 scale, 0 no effect, 100 complete control)
  plant injury at 125 g/ha: 80%
[10]; postemergence, visual injury rating after approximately 10 d, read-out: Barnyardgrass plant response rating (0 to 100 scale, 0 no effect, 100 complete control)
  pest or weed control at 125 g/ha: 80%
Kochia (Kochia scoparia); postemergence, visual injury rating after approximately 10 d, read-out: Kochia plant response rating (0 to 100 scale, 0 no effect, 100 complete control)
  pest or weed control at 125 g/ha: 30%
[11]; postemergence, visual injury rating after approximately 10 d, read-out: Galium plant response rating (0 to 100 scale, 0 no effect, 100 complete control)
  pest or weed control at 125 g/ha: 40%
[12]; [13]
  pest or weed control at 125 g/ha: 90%
[12]; Preemergence, visual injury vs untreated controls after approximately 10 d, read-out: Barnyardgrass plant response rating (0 to 100 scale where 0 is no effect and 100 is complete control)
  pest or weed control at 500 g/ha: 90%

Reference: patent US12077503B2, “Substituted cyclic amides and their use as herbicides” (FMC CORPORATION, priority 2015, dated 2024)
